What was measured:
COUP-TF I LBD = target: T1, COUP-TF I LBD (Homo sapiens, UniProt P10589); assay: DSF specificity assay, COUP-TF I; assay type: binding
T1 construct: human COUP-TF I LBD (residues 184-410); hexahistidine tag with 3C protease site; made in house; host or cells: E. coli BL(21) DE3
T1 sequence (P10589 184-410): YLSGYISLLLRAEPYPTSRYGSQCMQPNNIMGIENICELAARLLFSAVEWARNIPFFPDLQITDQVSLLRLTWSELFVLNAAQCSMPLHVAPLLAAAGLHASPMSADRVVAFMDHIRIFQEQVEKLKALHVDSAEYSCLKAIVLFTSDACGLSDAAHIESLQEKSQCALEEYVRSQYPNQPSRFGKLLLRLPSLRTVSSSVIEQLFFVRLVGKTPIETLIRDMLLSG
Method: (§1) Protein Expression and Purification. Human GCNF (NR6A1) LBD (residues 248-480) and mutants F284A/F361A, human LRH-1 (NR5A2) LBD (residues 291-541), human RXRα LBD (residues 223-462), human COUP-TF I LBD (residues 184-410) and human SF-1 LBD (residues 219-461) were subcloned in pET45b(+) plasmid (Novagen) were expressed in E. coli BL(21) DE3 cells in terrific broth with 0.1 mg/mL ampicillin as 3C protease-cleavable hexahistidine-tagged fusion proteins. The bacterial culture was grown at 37° C. to an optical density of 0.8 to 1.0 at 600 nm. Protein expression was induced by adding 1 mM IPTG and was allowed to proceed for 14 h at 22° C. […]
(§2) DSF Assay. […] A total of 450 compounds (Life Chemicals) previously selected from a nuclear-receptor-biased library targeting REV-ERB were analyzed. Thermal stability was assessed on a Quantstudio 6 instrument (Biosystems) by ramping the temperature from 25° C. to 95° C. at 0.05° C./s and protein melt shifts were subsequently quantified by Boltzmann-derived melting temperature (Tm) using the Protein Thermal Shift (ThermoFisher) software. […]

GCNF LBD F284A = target: T2, GCNF LBD F284A (Homo sapiens, UniProt Q15406, F284A); assay: DSF of GCNF LBD mutant F284A; assay type: binding; conditions: 20 μM ligand
T2 construct: Human GCNF (NR6A1) LBD (residues 248-480) and mutants F284A/F361A; hexahistidine tag with 3C protease site; made in house; host or cells: E. coli BL(21) DE3
T2 sequence (Q15406 248-480 F284A): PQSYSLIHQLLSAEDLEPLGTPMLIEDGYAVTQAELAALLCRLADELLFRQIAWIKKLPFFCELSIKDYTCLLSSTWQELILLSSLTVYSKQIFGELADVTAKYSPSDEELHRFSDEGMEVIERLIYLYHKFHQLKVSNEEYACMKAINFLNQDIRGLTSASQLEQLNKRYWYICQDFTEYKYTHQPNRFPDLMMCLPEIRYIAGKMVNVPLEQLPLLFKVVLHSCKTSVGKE
Method: as §1, §2

[1] = target: T3, chimeric Gal4-DBD human GCNF-LBD (Homo sapiens, UniProt Q15406); assay: Luciferase cotransfection reporter assay in HEK293 cells; assay type: cell-based; conditions: read-out: IC50, suppression of GCNF transactivation
T3 construct: expressed in transfected cells; host or cells: HEK293
T3 sequence (Q15406 249-480 limits assumed): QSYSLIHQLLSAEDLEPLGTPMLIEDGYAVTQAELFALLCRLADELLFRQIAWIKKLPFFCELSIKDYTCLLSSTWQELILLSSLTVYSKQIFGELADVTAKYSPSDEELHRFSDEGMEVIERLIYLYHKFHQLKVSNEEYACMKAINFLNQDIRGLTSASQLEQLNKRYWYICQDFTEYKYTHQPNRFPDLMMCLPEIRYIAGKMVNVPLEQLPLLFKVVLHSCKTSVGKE
Method: Cell Culture, Cotransfection Assays, and QPCR Analysis. Cotransfection assays were performed in HEK293 cells as previously described (Griffett et al., 2013; Wu et al., 2003; Savkur et al., 2003). Briefly, for dose-response cotransfection assays, a chimeric Gal4-DBD human GCNF-LBD in the pBIND vector was cotransfected with pGL4.35[luc2P/9XGAL4UAS/Hygro] vector (Promega). All cotransfections were normalized to renilla (pGL4.73; Dual-Glo luciferase reagent; Promega) and subsequently DMSO for analysis.

Row | change of Tm of COUP-TF I LBD (COUP-TF I LBD) | effect of mutation F284A on ΔTm compared to WT (GCNF LBD F284A) | IC50 [1] [nM] | SMILES
1 | did not significantly change | substantially decreased the ΔTm | 1100 | Cc1ccc(-n2ncc3c(N4CCOCC4)nc(NCc4ccco4)nc32)cc1 [Ligand 34, N-[(furan-2-yl)methyl]-1-(4-methylphenyl)-4-(morpholin-4-yl)-1H-pyrazolo[3,4-d]pyrimidin-6-amine]
2 | did not significantly change | no substantial effect | 317 | O=C(Cn1cc(S(=O)(=O)c2ccccc2)c2ccccc21)N1CCc2ccccc21 [Ligand 80, 2-[3-(benzenesulfonyl)-1H-indol-1-yl]-1-(2,3-dihydro-1H-indol-1-yl)ethan-1-one]

— patent US12478628B2, “Germ cell nuclear factor ligands and methods of use thereof” (Saint Louis University, priority 2020, dated 2025)
